pKd: −log10 of the molar value. Positions of bridges follow the written chain, without caps; N, C: chain ends. Non-standard residues stand in square brackets, D forms with d. Residues, ends and D or L forms follow the SMILES beside them. *: point of attachment. X1 = O=C(O)c1cc(NC(=S)*)ccc1-c1c2ccc(=O)cc-2oc2cc(O)ccc12; Phe(3,4-Cl2) = N[C@@H](Cc1ccc(Cl)c(Cl)c1)C(=O)O; R5 = C=CCCC[C@@](C)(N)C(=O)O
biological target: T1, Replication protein A 70 kDa DNA-binding subunit (Homo sapiens, UniProt P27694)
T1 sequence (P27694 whole entry): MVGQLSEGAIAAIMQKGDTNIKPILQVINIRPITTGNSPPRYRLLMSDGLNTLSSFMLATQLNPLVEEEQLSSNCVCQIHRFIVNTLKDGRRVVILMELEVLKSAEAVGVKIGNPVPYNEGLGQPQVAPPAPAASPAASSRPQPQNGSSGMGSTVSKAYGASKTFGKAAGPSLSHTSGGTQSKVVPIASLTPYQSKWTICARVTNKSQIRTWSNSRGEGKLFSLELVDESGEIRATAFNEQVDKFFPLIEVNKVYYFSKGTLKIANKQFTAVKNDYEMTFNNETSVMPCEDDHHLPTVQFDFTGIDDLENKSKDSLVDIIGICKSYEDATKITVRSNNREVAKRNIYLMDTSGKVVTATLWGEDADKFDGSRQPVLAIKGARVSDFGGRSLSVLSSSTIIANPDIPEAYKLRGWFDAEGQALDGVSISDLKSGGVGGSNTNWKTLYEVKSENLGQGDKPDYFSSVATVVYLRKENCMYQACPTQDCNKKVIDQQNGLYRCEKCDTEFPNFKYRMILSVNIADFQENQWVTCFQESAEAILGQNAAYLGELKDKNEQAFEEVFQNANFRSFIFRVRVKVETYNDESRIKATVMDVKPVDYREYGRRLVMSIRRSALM

Compound | pKd
Ac-DFTADDAEELDTLAS-NH2 | 3.76
CC(C)C[C@H](NC(=O)[C@H](CC(=O)O)NC(=O)[C@H](CC(=O)O)NC(=O)[C@H](C)NC(=O)[C@@H](NC(=O)[C@H](Cc1ccccc1)NC(=O)[C@H](CC(=O)O)NC(=S)Nc1ccc(-c2c3ccc(=O)cc-3oc3cc(O)ccc23)c(C(=O)O)c1)[C@@H](C)O)C(=O)N[C@@H](CCC(=O)O)C(=O)N[C@@H](CCC(=O)O)C(=O)N[C@@H](Cc1c[nH]c2ccccc12)C(=O)N[C@@H](Cc1ccccc1)C(=O)N[C@@H](C)C(N)=O (X1-DFTADDLEEWFA-NH2) | 6.04
Ac-NFTADDLEEWFALAS-NH2 | 5.24
Ac-DFTADDLAEWFTLAS-NH2 | 4.37
Ac-DFTADDLEEWFALAS-NH2 | 5.92
Ac-DFTADDLEELDTAAS-NH2 | 4.20
CC(C)C[C@H](NC(=O)[C@H](C)NC(=O)[C@H](Cc1ccccc1)NC(=O)[C@H](Cc1c[nH]c2ccccc12)NC(=O)[C@H](C)NC(=O)[C@H](CCC(=O)O)NC(=O)[C@H](CC(C)C)NC(=O)[C@H](CC(N)=O)NC(=O)[C@H](C)NC(=O)[C@H](C)NC(=O)[C@@H](NC(=O)[C@H](Cc1ccccc1)NC(=O)[C@H](CC(N)=O)NC(=S)Nc1ccc(-c2c3ccc(=O)cc-3oc3cc(O)ccc23)c(C(=O)O)c1)[C@@H](C)O)C(=O)N[C@@H](C)C(=O)N[C@@H](CO)C(N)=O (X1-NFTAANLEAWFALAS-NH2) | 4.68
Ac-DFTADDLEALDTLAS-NH2 | 3.78
CC(C)C[C@H](NC(=O)[C@H](CC(=O)O)NC(=O)[C@H](CC(=O)O)NC(=O)[C@H](C)NC(=O)[C@@H](NC(=O)[C@H](Cc1ccccc1)NC(=O)[C@H](CC(=O)O)NC(=S)Nc1ccc(-c2c3ccc(=O)cc-3oc3cc(O)ccc23)c(C(=O)O)c1)[C@@H](C)O)C(=O)N[C@@H](CCC(=O)O)C(=O)N[C@@H](CCC(=O)O)C(=O)N[C@@H](CC(C)C)C(=O)N[C@@H](CC(=O)O)C(=O)N[C@H](C(=O)N[C@@H](CC(C)C)C(=O)N[C@@H](C)C(=O)N[C@@H](CO)C(N)=O)[C@@H](C)O (X1-DFTADDLEELDTLAS-NH2) | 5.19
Ac-DFTADDLEEWDTLAS-NH2 | 3.86
Ac-DFTAADLEEWFALAS-NH2 | 5.64
Ac-DFTADDLAEWFALAS-NH2 | 4.55
Ac-DFAADDLEELDTLAS-NH2 | 3.82
Ac-DFTADDLEELATLAS-NH2 | 4.07
CC(C)C[C@H](NC(=O)[C@H](C)NC(=O)[C@H](Cc1ccccc1)NC(=O)[C@H](Cc1c[nH]c2ccccc12)NC(=O)[C@@]1(C)CCC/C=C\CCC[C@@](C)(NC(=O)[C@H](C)NC(=O)[C@@H](NC(=O)[C@H](Cc2ccccc2)NC(=O)[C@H](CC(=O)O)NC(=S)Nc2ccc(-c3c4ccc(=O)cc-4oc4cc(O)ccc34)c(C(=O)O)c2)[C@@H](C)O)C(=O)N[C@@H](CC(=O)O)C(=O)N[C@@H](CC(C)C)C(=O)N[C@@H](CCC(=O)O)C(=O)N1)C(=O)O (X1-DFTA[R5]DLE[R5]WFAL-OH; staple (Z) 5-9) | 6.24
Ac-DFTADDLEELDTLAA-NH2 | 4.59
Ac-AFTADDLEELDTLAS-NH2 | 3.82
CC(C)C[C@H](NC(=O)[C@H](C)NC(=O)[C@H](Cc1ccccc1)NC(=O)[C@H](Cc1c[nH]c2ccccc12)NC(=O)[C@@]1(C)CCC/C=C\CCC[C@@](C)(NC(=O)[C@H](C)NC(=O)[C@@H](NC(=O)[C@H](Cc2ccccc2)NC(=O)[C@H](CC(=O)O)NC(=S)Nc2ccc(-c3c4ccc(=O)cc-4oc4cc(O)ccc34)c(C(=O)O)c2)[C@@H](C)O)C(=O)N[C@@H](CC(N)=O)C(=O)N[C@@H](CC(C)C)C(=O)N[C@@H](CCC(=O)O)C(=O)N1)C(=O)O (X1-DFTA[R5]NLE[R5]WFAL-OH; staple (Z) 5-9) | 5.43
Ac-DFTAADLEELDTLAS-NH2 | 4.51

Compound | pKd
Ac-DFTANDLEEWFALAS-NH2 | 4.72
Ac-DFTADALEEWFALAS-NH2 | 4.55
CC(C)C[C@H](NC(=O)[C@H](C)NC(=O)[C@H](Cc1ccc(Cl)c(Cl)c1)NC(=O)[C@H](Cc1c[nH]c2ccccc12)NC(=O)[C@H](CCC(=O)O)NC(=O)[C@H](CCC(=O)O)NC(=O)[C@H](CC(C)C)NC(=O)[C@H](CC(=O)O)NC(=O)[C@H](CC(=O)O)NC(=O)[C@H](C)NC(=O)[C@@H](NC(=O)[C@H](Cc1ccccc1)NC(=O)[C@H](CC(=O)O)NC(=S)Nc1ccc(-c2c3ccc(=O)cc-3oc3cc(O)ccc23)c(C(=O)O)c1)[C@@H](C)O)C(N)=O (X1-DFTADDLEEW[Phe(3,4-Cl2)]AL-NH2) | 7.66
CC(C)C[C@H](NC(=O)[C@H](C)NC(=O)[C@H](Cc1ccc(Cl)c(Cl)c1)NC(=O)[C@H](Cc1c[nH]c2ccccc12)NC(=O)[C@@]1(C)CCC/C=C\CCC[C@@](C)(NC(=O)[C@H](C)NC(=O)[C@@H](NC(=O)[C@H](Cc2ccccc2)NC(=O)[C@H](CC(N)=O)NC(=S)Nc2ccc(-c3c4ccc(=O)cc-4oc4cc(O)ccc34)c(C(=O)O)c2)[C@@H](C)O)C(=O)N[C@@H](CC(=O)O)C(=O)N[C@@H](CC(C)C)C(=O)N[C@@H](CCC(=O)O)C(=O)N1)C(=O)O (X1-NFTA[R5]DLE[R5]W[Phe(3,4-Cl2)]AL-OH; staple (Z) 5-9) | 7.32
Ac-DFTADDLEELDALAS-NH2 | 4.77
CC(C)C[C@H](NC(=O)[C@H](C)NC(=O)[C@H](Cc1ccccc1)NC(=O)[C@H](Cc1c[nH]c2ccccc12)NC(=O)[C@H](CCC(=O)O)NC(=O)[C@H](CCC(=O)O)NC(=O)[C@H](CC(C)C)NC(=O)[C@H](CC(=O)O)NC(=O)[C@H](CC(=O)O)NC(=O)[C@H](C)NC(=O)[C@@H](NC(=O)[C@H](Cc1ccccc1)NC(=O)[C@H](CC(=O)O)NC(=S)Nc1ccc(-c2c3ccc(=O)cc-3oc3cc(O)ccc23)c(C(=O)O)c1)[C@@H](C)O)C(N)=O (X1-DFTADDLEEWFAL-NH2) | 6.48
Ac-DFTADDLEEWFTLAS-NH2 | 5.57
Ac-DFTADDLEEADTLAS-NH2 | 3.71
Ac-DFTADDLEELFTLAS-NH2 | 4.66
CC(C)C[C@H](NC(=O)[C@H](C)NC(=O)[C@H](Cc1ccccc1)NC(=O)[C@H](Cc1c[nH]c2ccccc12)NC(=O)[C@@]1(C)CCC/C=C\CCC[C@@](C)(NC(=O)[C@H](C)NC(=O)[C@@H](NC(=O)[C@H](Cc2ccccc2)NC(=O)[C@H](CC(N)=O)NC(=S)Nc2ccc(-c3c4ccc(=O)cc-4oc4cc(O)ccc34)c(C(=O)O)c2)[C@@H](C)O)C(=O)N[C@@H](CC(=O)O)C(=O)N[C@@H](CC(C)C)C(=O)N[C@@H](CCC(=O)O)C(=O)N1)C(=O)O (X1-NFTA[R5]DLE[R5]WFAL-OH; staple (Z) 5-9) | 5.82
CC(C)C[C@H](NC(=O)[C@H](C)NC(=O)[C@H](Cc1ccccc1)NC(=O)[C@H](Cc1c[nH]c2ccccc12)NC(=O)[C@H](CCC(=O)O)NC(=O)[C@H](CCC(=O)O)NC(=O)[C@H](CC(C)C)NC(=O)[C@H](CC(=O)O)NC(=O)[C@H](CC(=O)O)NC(=O)[C@H](C)NC(=O)[C@@H](NC(=O)[C@H](Cc1ccccc1)NC(=O)[C@H](CC(=O)O)NC(=S)Nc1ccc(-c2c3ccc(=O)cc-3oc3cc(O)ccc23)c(C(=O)O)c1)[C@@H](C)O)C(=O)N[C@@H](C)C(N)=O (X1-DFTADDLEEWFALA-NH2) | 6.24
Ac-DFTADDLAELDTLAS-OH | 4.66
Ac-DFTADDLEAWFALAS-NH2 | 5.62
Ac-DFTADALEELDTLAS-NH2 | 3.65
CC(C)C[C@H](NC(=O)[C@H](C)NC(=O)[C@H](Cc1ccccc1)NC(=O)[C@H](Cc1c[nH]c2ccccc12)NC(=O)[C@@]1(C)CCC/C=C\CCC[C@@](C)(NC(=O)[C@H](C)NC(=O)[C@@H](NC(=O)[C@H](Cc2ccccc2)NC(=O)[C@H](CC(N)=O)NC(=S)Nc2ccc(-c3c4ccc(=O)cc-4oc4cc(O)ccc34)c(C(=O)O)c2)[C@@H](C)O)C(=O)N[C@@H](CC(N)=O)C(=O)N[C@@H](CC(C)C)C(=O)N[C@@H](CCC(=O)O)C(=O)N1)C(=O)O (X1-NFTA[R5]NLE[R5]WFAL-OH; staple (Z) 5-9) | 5.13
Ac-DFTADDLAELDALAS-NH2 | 4.70
Ac-DFTADDLEQWFALAS-NH2 | 5.59
Ac-DFTADNLEEWFALAS-NH2 | 5.16

test system: U2OS; experiment: Cellular uptake in human U2OS cells after 24 hrs by confocal microscopy; assay type: ADME, cell-based; call rule not given here

Compound | Drug uptake
CC(C)C[C@H](NC(=O)[C@H](C)NC(=O)[C@H](Cc1ccccc1)NC(=O)[C@H](Cc1c[nH]c2ccccc12)NC(=O)[C@@]1(C)CCC/C=C\CCC[C@@](C)(NC(=O)[C@H](C)NC(=O)[C@@H](NC(=O)[C@H](Cc2ccccc2)NC(=O)[C@H](CC(=O)O)NC(=S)Nc2ccc(-c3c4ccc(=O)cc-4oc4cc(O)ccc34)c(C(=O)O)c2)[C@@H](C)O)C(=O)N[C@@H](CC(=O)O)C(=O)N[C@@H](CC(C)C)C(=O)N[C@@H](CCC(=O)O)C(=O)N1)C(=O)O (X1-DFTA[R5]DLE[R5]WFAL-OH; staple (Z) 5-9) | Not Active
CC(C)C[C@H](NC(=O)[C@H](C)NC(=O)[C@H](Cc1ccccc1)NC(=O)[C@H](Cc1c[nH]c2ccccc12)NC(=O)[C@@]1(C)CCC/C=C\CCC[C@@](C)(NC(=O)[C@H](C)NC(=O)[C@@H](NC(=O)[C@H](Cc2ccccc2)NC(=O)[C@H](CC(=O)O)NC(=S)Nc2ccc(-c3c4ccc(=O)cc-4oc4cc(O)ccc34)c(C(=O)O)c2)[C@@H](C)O)C(=O)N[C@@H](CC(N)=O)C(=O)N[C@@H](CC(C)C)C(=O)N[C@@H](CCC(=O)O)C(=O)N1)C(=O)O (X1-DFTA[R5]NLE[R5]WFAL-OH; staple (Z) 5-9) | Active
CC(C)C[C@H](NC(=O)[C@H](C)NC(=O)[C@H](Cc1ccccc1)NC(=O)[C@H](Cc1c[nH]c2ccccc12)NC(=O)[C@@]1(C)CCC/C=C\CCC[C@@](C)(NC(=O)[C@H](C)NC(=O)[C@@H](NC(=O)[C@H](Cc2ccccc2)NC(=O)[C@H](CC(N)=O)NC(=S)Nc2ccc(-c3c4ccc(=O)cc-4oc4cc(O)ccc34)c(C(=O)O)c2)[C@@H](C)O)C(=O)N[C@@H](CC(N)=O)C(=O)N[C@@H](CC(C)C)C(=O)N[C@@H](CCC(=O)O)C(=O)N1)C(=O)O (X1-NFTA[R5]NLE[R5]WFAL-OH; staple (Z) 5-9) | Active

biological target: not listed separately; experiment: Binding affinity to recombinant human RPA70C/32D/14 by fluorescence polarization anisotropy assay

Compound | pKd
CC(C)C[C@H](NC(=O)[C@H](C)NC(=O)[C@H](Cc1ccccc1)NC(=O)[C@H](Cc1c[nH]c2ccccc12)NC(=O)[C@@]1(C)CCC/C=C\CCC[C@@](C)(NC(=O)[C@H](C)NC(=O)[C@@H](NC(=O)[C@H](Cc2ccccc2)NC(=O)[C@H](CC(N)=O)NC(=S)Nc2ccc(-c3c4ccc(=O)cc-4oc4cc(O)ccc34)c(C(=O)O)c2)[C@@H](C)O)C(=O)N[C@@H](CC(N)=O)C(=O)N[C@@H](CC(C)C)C(=O)N[C@@H](CCC(=O)O)C(=O)N1)C(=O)O (X1-NFTA[R5]NLE[R5]WFAL-OH; staple (Z) 5-9) | 4.92

biological target: T1, Replication protein A 70 kDa DNA-binding subunit; experiment: Binding affinity to recombinant human RPA70 A/B region (181 to 422 amino acids) expressed in Escherichia coli Rosetta by fluorescence polarization anisotropy assay

Compound | pKd
CC(C)C[C@H](NC(=O)[C@H](C)NC(=O)[C@H](Cc1ccccc1)NC(=O)[C@H](Cc1c[nH]c2ccccc12)NC(=O)[C@@]1(C)CCC/C=C\CCC[C@@](C)(NC(=O)[C@H](C)NC(=O)[C@@H](NC(=O)[C@H](Cc2ccccc2)NC(=O)[C@H](CC(N)=O)NC(=S)Nc2ccc(-c3c4ccc(=O)cc-4oc4cc(O)ccc34)c(C(=O)O)c2)[C@@H](C)O)C(=O)N[C@@H](CC(N)=O)C(=O)N[C@@H](CC(C)C)C(=O)N[C@@H](CCC(=O)O)C(=O)N1)C(=O)O (X1-NFTA[R5]NLE[R5]WFAL-OH; staple (Z) 5-9) | 4.92
